In BindingDB's records for patent US20250051327 (Exscientia AI, 2025) one finds IC50 data, which are given here for 13 compounds.

This experiment addresses T1, Mucosa-associated lymphoid tissue lymphoma translocation protein 1 (Homo sapiens, UniProt Q9UDY8).
T1 sequence (Q9UDY8 whole entry): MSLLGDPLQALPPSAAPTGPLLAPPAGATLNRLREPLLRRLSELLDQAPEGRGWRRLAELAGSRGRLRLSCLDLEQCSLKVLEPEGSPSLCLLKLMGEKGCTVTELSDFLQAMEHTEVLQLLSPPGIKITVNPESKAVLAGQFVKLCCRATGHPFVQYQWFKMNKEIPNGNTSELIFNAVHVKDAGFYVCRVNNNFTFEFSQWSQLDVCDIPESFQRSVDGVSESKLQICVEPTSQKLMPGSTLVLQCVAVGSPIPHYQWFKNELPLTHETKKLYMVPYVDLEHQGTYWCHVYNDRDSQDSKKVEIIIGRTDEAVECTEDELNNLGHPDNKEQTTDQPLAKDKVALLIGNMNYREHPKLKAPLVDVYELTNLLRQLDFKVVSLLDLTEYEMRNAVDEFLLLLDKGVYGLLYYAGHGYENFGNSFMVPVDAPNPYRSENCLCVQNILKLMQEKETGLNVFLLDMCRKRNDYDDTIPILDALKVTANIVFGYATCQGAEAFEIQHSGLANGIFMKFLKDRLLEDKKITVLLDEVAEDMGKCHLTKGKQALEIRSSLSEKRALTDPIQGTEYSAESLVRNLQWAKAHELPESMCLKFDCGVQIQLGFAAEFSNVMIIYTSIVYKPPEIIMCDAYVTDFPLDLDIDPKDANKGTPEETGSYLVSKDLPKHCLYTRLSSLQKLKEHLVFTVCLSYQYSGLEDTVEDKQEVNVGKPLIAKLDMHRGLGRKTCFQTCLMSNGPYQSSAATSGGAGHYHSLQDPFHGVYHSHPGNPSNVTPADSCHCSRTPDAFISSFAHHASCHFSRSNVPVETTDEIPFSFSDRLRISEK
As to the kind of experiment: MALT-1 Inhibition Assay. As for the experimental part: MALT-1 paracaspase activity was measured using the fluorogenic substrate Ac-LRSR-Rh110-DP (purchased from Biosantan GmbH). Proteolytic cleavage of the peptide—rhodamine conjugate results in an increase of rhodamine fluorescence which is inhibited by test compounds. Test compounds were diluted in DMSO in a series of 10 semi-log step doses, 15 nL of each compound dose were dispensed in 384 well polypropylene plates (HiBase non-binding, Greiner Bio-One cat #784900). All other assay components were diluted to appropriate working concentrations in assay buffer composed of: 200 mM Tris-HCl (pH 7.5; Sigma-Aldrich cat #T2663-1L), 0.1 mM EGTA (Sigma-Aldrich cat #E3889-10G), 0.05% CHAPS—Sigma-Aldrich cat #C9426-1G), 1 mM TCEP (Sigma-Aldrich cat #646547-10×1 mL), 0.8 M sodium citrate (Sigma-Aldrich cat #S1804-500G). Recombinant human MALT-1 (amino acids 340-824, accession NP_006776.1) was added to compound doses and equilibrated for 40 minutes at rt. The reaction was initiated by addition of substrate. Final concentrations of MALT-1 and substrate were 3 nM and 10 μM respectively. Reactions were incubated in the dark for 60 minutes at 25° C. Fluorescence was measured in a PHERAstar FSX plate reader (BMG LABTECH) with optical setup for excitation at 485 nm and emission at 520 nm, focal height of 11.8 mm, 20 flashes, gain 300. Percent inhibition values were calculated from relative fluorescence units at different doses and fitted to a 4-parameter logistic curve to determine IC50 values.

For orientation: IC50 means the point on the concentration scale where inhibition reaches its midpoint. A low value points to inhibition by little substance. `CO[C@@H](C)c1c(Nc2ccc([C@H](N(C)C(=O)[C@@H]3CCC(=O)NC3)C(F)(F)F)cc2)cnn2cc(Cl)nc12` (relative stereo) [US20250051327, Reference CPD0082472] returned an IC50 of 0.041 µM.

Consider `CN(C(=O)C1CCS(=O)(=O)CC1)[C@@H](c1ccc(N2CCC3(CC3)c3c2cnc2cc(Cl)nn32)nc1)C(F)(F)F` [US20250051327, Reference CPD0021660], for which the IC50 came out at 0.087 µM.

Compound `CN(C(=O)C1CCS(=O)(=O)CC1)[C@@H](c1ccc(N2CC[C@]3(CCOC3)c3c2cnc2cc(Cl)nn32)cc1)C(F)(F)F` [US20250051327, Reference CPD0073763] yielded an IC50 of 0.057 µM.

`CN(C(=O)[C@@H]1CS(=O)(=O)CC12COC2)[C@@H](c1ccc(N2CCCc3c2cnc2cc(Cl)nn32)cc1)C(F)(F)F` [US20250051327, Reference CPD0073974] yielded an IC50 of 0.155 µM.

As to `CO[C@@H](C)c1c(Nc2ccc([C@H](N(C)C(=O)[C@H]3CCN(C(=O)CO)C3)C(F)(F)F)cc2)cnn2cc(Cl)nc12` (relative stereo) [US20250051327, Reference CPD0084139], half-maximal inhibition (IC50) required 0.052 µM.

As to `CO[C@@H](C)c1c(Nc2ccc([C@H](N(C)C(=O)C3CN(S(C)(=O)=O)C3)C(F)(F)F)cc2)cnn2cc(Cl)nc12` [US20250051327, Reference CPD0084936], the IC50 is 0.065 µM. This IC50 and that of the compound before are within 1.5-fold of each other.

Compound `COc1ccc2ncc(Nc3ccc([C@H](N(C)C(=O)[C@H]4CCC(=O)N4)C(F)(F)F)cc3)c([C@H](C)OC)c2n1` (relative stereo) [US20250051327, Reference CPD0075581] showed an IC50 of 0.037 µM.

`COc1ccc2ncc(Nc3ccc([C@H](N(C)C(=O)[C@H]4CNC(=O)C4)C(F)(F)F)cc3)c([C@@H]3CCOC3)c2n1` (relative stereo) [US20250051327, Reference CPD0082477] registered an IC50 of 0.041 µM.

Consider `COc1ccc2ncc(Nc3ccc([C@H](N(C)C(=O)C4CCS(=O)(=O)CC4)C(F)(F)F)cc3)c([C@H](C)OC)c2n1` (relative stereo) [US20250051327, Reference CPD0019170], for which inhibition was half-maximal at 0.065 µM (IC50). This IC50 is about 1.6-fold higher than that of the compound before.

In the case of `COc1ccc2ncc(Nc3ccc([C@H](N(C)C(=O)C4CCS(=O)(=O)CC4)C(F)(F)F)cc3)c([C@H]3CCOC3)c2n1` [US20250051327, Reference CPD0074039], the IC50 came to 0.138 µM. This IC50 lies about 2.1-fold higher than the previous one.

Consider `COC[C@@H]1CCN(c2ccc([C@H](N(C)C(=O)C3CCS(=O)(=O)CC3)C(F)(F)F)cc2)c2cnc3cc(Cl)nn3c21` [US20250051327, Reference CPD0073503], for which the midpoint of inhibition, the IC50, lay at 0.115 µM.

In the case of `CO[C@@H](C)c1c(Nc2ccc([C@H](N(C)C(=O)[C@H]3CNC(=O)C3)C(F)(F)F)cc2)cnn2cc(Cl)nc12` (relative stereo) [US20250051327, Reference CPD0082467], 0.042 µM corresponded to half-maximal inhibition (IC50).

For the compound `COc1ccc2ncc(Nc3ccc([C@H](N(C)C(=O)C4CCS(=O)(=O)CC4)C(F)(F)F)cc3)c(C3(OC)COC3)c2n1` [US20250051327, Reference CPD0076414], the IC50 amounted to 0.124 µM. This IC50 lies about 3-fold higher than the previous one.
